According to PubChem BioAssay (NCI):
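Briefly, cells in 96-well plates were exposed to five compound concentrations for 48 h, and endpoints were estimated by linear interpolation. The concentration for full growth arrest is given as TGI.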

Experiments:
Assay in all cases: DTP human tumour cell line panel, 48 h
HS 578T breast = test system: HS 578T breast
DU-145 prostate = test system: DU-145 prostate
786-0 renal = test system: 786-0 renal
COLO 205 colon = test system: COLO 205 colon
MDA-N = test system: MDA-N
TK-10 renal = test system: TK-10 renal
IGROV1 ovarian = test system: IGROV1 ovarian
NCI-H522 lung = test system: NCI-H522 lung
M14 melanoma = test system: M14 melanoma
SW-620 colon = test system: SW-620 colon
A498 renal = test system: A498 renal
PC-3 prostate = test system: PC-3 prostate
OVCAR-4 ovarian = test system: OVCAR-4 ovarian
MDA-MB-231 breast = test system: MDA-MB-231 breast
UACC-62 melanoma = test system: UACC-62 melanoma
ACHN renal = test system: ACHN renal
U251 CNS = test system: U251 CNS
KM12 colon = test system: KM12 colon
NCI-H460 lung = test system: NCI-H460 lung
SR leukemia = test system: SR leukemia
HOP-92 NSCLC = test system: HOP-92 NSCLC
SF-295 CNS = test system: SF-295 CNS
UACC-257 melanoma = test system: UACC-257 melanoma
SK-MEL-5 melanoma = test system: SK-MEL-5 melanoma
MOLT-4 leukemia = test system: MOLT-4 leukemia
K-562 leukemia = test system: K-562 leukemia
HT29 colon = test system: HT29 colon
RPMI-8226 leukemia = test system: RPMI-8226 leukemia
SNB-19 CNS = test system: SNB-19 CNS
SK-OV-3 ovarian = test system: SK-OV-3 ovarian
MCF7 breast = test system: MCF7 breast
BT-549 breast = test system: BT-549 breast
A549 NSCLC = test system: A549 NSCLC
HCT-15 colon = test system: HCT-15 colon
HOP-62 NSCLC = test system: HOP-62 NSCLC
MDA-MB-435 = test system: MDA-MB-435
T-47D breast = test system: T-47D breast
HL-60(TB) leukemia = test system: HL-60(TB) leukemia
CCRF-CEM leukemia = test system: CCRF-CEM leukemia
SK-MEL-28 melanoma = test system: SK-MEL-28 melanoma
NCI/ADR-RES ovarian = test system: NCI/ADR-RES ovarian
RXF 393 renal = test system: RXF 393 renal
UO-31 renal = test system: UO-31 renal
OVCAR-8 ovarian = test system: OVCAR-8 ovarian
SN12C renal = test system: SN12C renal
OVCAR-3 ovarian = test system: OVCAR-3 ovarian
LOX IMVI melanoma = test system: LOX IMVI melanoma
OVCAR-5 ovarian = test system: OVCAR-5 ovarian
SNB-75 CNS = test system: SNB-75 CNS
MALME-3M melanoma = test system: MALME-3M melanoma
EKVX NSCLC = test system: EKVX NSCLC
SF-268 CNS = test system: SF-268 CNS
CAKI-1 renal = test system: CAKI-1 renal
HCT-116 colon = test system: HCT-116 colon
NCI-H23 lung = test system: NCI-H23 lung
SK-MEL-2 melanoma = test system: SK-MEL-2 melanoma
NCI-H226 lung = test system: NCI-H226 lung
HCC-2998 colon = test system: HCC-2998 colon
SF-539 CNS = test system: SF-539 CNS

Nc1cccc(OCc2nc(N)nc(N)c2-c2ccc(Cl)cc2)c1
TGI (HS 578T breast): > 100 µM | TGI (DU-145 prostate): > 100 µM | TGI (786-0 renal): > 100 µM | TGI (COLO 205 colon): 44.1 µM | TGI (MDA-N): > 100 µM | TGI (TK-10 renal): > 100 µM | TGI (IGROV1 ovarian): > 100 µM | TGI (NCI-H522 lung): > 100 µM | TGI (M14 melanoma): > 100 µM | TGI (SW-620 colon): > 100 µM | TGI (A498 renal): > 100 µM | TGI (PC-3 prostate): > 100 µM | TGI (OVCAR-4 ovarian): > 100 µM | TGI (MDA-MB-231 breast): > 100 µM | TGI (UACC-62 melanoma): > 100 µM | TGI (ACHN renal): > 100 µM | TGI (U251 CNS): > 100 µM | TGI (KM12 colon): > 100 µM | TGI (NCI-H460 lung): > 100 µM | TGI (SR leukemia): > 100 µM | TGI (HOP-92 NSCLC): > 100 µM | TGI (SF-295 CNS): > 100 µM | TGI (UACC-257 melanoma): > 100 µM | TGI (SK-MEL-5 melanoma): > 100 µM | TGI (MOLT-4 leukemia): > 100 µM | TGI (K-562 leukemia): > 100 µM | TGI (HT29 colon): > 100 µM | TGI (RPMI-8226 leukemia): > 100 µM | TGI (SNB-19 CNS): > 100 µM | TGI (SK-OV-3 ovarian): > 100 µM | TGI (MCF7 breast): > 100 µM | TGI (BT-549 breast): > 100 µM | TGI (A549 NSCLC): > 100 µM | TGI (HCT-15 colon): > 100 µM | TGI (HOP-62 NSCLC): > 100 µM | TGI (MDA-MB-435): > 100 µM | TGI (T-47D breast): > 100 µM | TGI (HL-60(TB) leukemia): 77.3 µM | TGI (CCRF-CEM leukemia): 29.2 µM | TGI (SK-MEL-28 melanoma): > 100 µM | TGI (NCI/ADR-RES ovarian): > 100 µM | TGI (RXF 393 renal): > 100 µM | TGI (UO-31 renal): > 100 µM | TGI (OVCAR-8 ovarian): > 100 µM | TGI (SN12C renal): > 100 µM | TGI (OVCAR-3 ovarian): > 100 µM | TGI (LOX IMVI melanoma): > 100 µM | TGI (OVCAR-5 ovarian): > 100 µM | TGI (SNB-75 CNS): > 100 µM | TGI (MALME-3M melanoma): > 100 µM | TGI (EKVX NSCLC): > 100 µM | TGI (SF-268 CNS): > 100 µM | TGI (CAKI-1 renal): > 100 µM | TGI (HCT-116 colon): > 100 µM | TGI (NCI-H23 lung): > 100 µM | TGI (SK-MEL-2 melanoma): > 100 µM | TGI (NCI-H226 lung): 79.5 µM

CN(/N=C\c1ccc2ccccc2c1)C1=NCCCCN1
TGI (HS 578T breast): 62.3 µM | TGI (DU-145 prostate): > 100 µM | TGI (786-0 renal): 32.8 µM | TGI (COLO 205 colon): 35.3 µM | TGI (MDA-N): 31.2 µM | TGI (TK-10 renal): 56.5 µM | TGI (IGROV1 ovarian): > 100 µM | TGI (NCI-H522 lung): 34 µM | TGI (SW-620 colon): 37.8 µM | TGI (A498 renal): 56.6 µM | TGI (PC-3 prostate): 36 µM | TGI (OVCAR-4 ovarian): > 100 µM | TGI (MDA-MB-231 breast): 64.5 µM | TGI (UACC-62 melanoma): 64.2 µM | TGI (ACHN renal): > 100 µM | TGI (U251 CNS): 44.6 µM | TGI (KM12 colon): 52.1 µM | TGI (NCI-H460 lung): 39.7 µM | TGI (SR leukemia): 68.7 µM | TGI (HOP-92 NSCLC): 7.4 µM | TGI (SF-295 CNS): 33.5 µM | TGI (UACC-257 melanoma): 33.7 µM | TGI (SK-MEL-5 melanoma): 27.3 µM | TGI (MOLT-4 leukemia): 48.2 µM | TGI (K-562 leukemia): 42.5 µM | TGI (HT29 colon): 38.2 µM | TGI (RPMI-8226 leukemia): 56.9 µM | TGI (HCC-2998 colon): 28.5 µM | TGI (SK-OV-3 ovarian): > 100 µM | TGI (MCF7 breast): 48.9 µM | TGI (BT-549 breast): 46.8 µM | TGI (A549 NSCLC): 58.3 µM | TGI (HCT-15 colon): > 100 µM | TGI (HOP-62 NSCLC): 90.7 µM | TGI (MDA-MB-435): 38.1 µM | TGI (SF-539 CNS): 48.6 µM | TGI (T-47D breast): > 100 µM | TGI (HL-60(TB) leukemia): 39.9 µM | TGI (CCRF-CEM leukemia): 69.1 µM | TGI (SK-MEL-28 melanoma): 31.1 µM | TGI (NCI/ADR-RES ovarian): > 100 µM | TGI (RXF 393 renal): 42.6 µM | TGI (UO-31 renal): 55.8 µM | TGI (OVCAR-8 ovarian): > 100 µM | TGI (SN12C renal): 45.7 µM | TGI (OVCAR-3 ovarian): > 100 µM | TGI (LOX IMVI melanoma): 28.7 µM | TGI (OVCAR-5 ovarian): > 100 µM | TGI (SNB-75 CNS): 59.3 µM | TGI (MALME-3M melanoma): 30.1 µM | TGI (EKVX NSCLC): > 100 µM | TGI (SF-268 CNS): > 100 µM | TGI (CAKI-1 renal): 29.9 µM | TGI (HCT-116 colon): > 100 µM | TGI (NCI-H23 lung): > 100 µM | TGI (SK-MEL-2 melanoma): 45.4 µM | TGI (NCI-H226 lung): > 100 µM
